# Results from US20220288404A1, “METHODS FOR APPLYING TUMOR TREATING FIELDS IN COMBINATION WITH CANCER TREATING THERAPEUTICS” (THE BOARD OF REGENTS OF THE UNIVERSITY OF TEXAS SYSTEM, priority 2021, published 2022).
# Columns and labels:
# Assay type in all cases: cell-based
# H1299 cells [1] = assay: Clonogenic cell survival assay, H1299 cells; conditions: for CI TTFields + ETOP / CI Irino + 2Gy / CI TTFields + Irino / CI TTFields + Irino + 2Gy: CI>1 synergistic
# Experimental: (§1) Using certain embodiments disclosed herein, TTFields in combination with various inhibitors and/or radiation treatment (IR) were applied to NSCLC cells or pancreatic cancer cells. For example, a predetermined inhibitor at a predetermined concentration was delivered to NSCLC cells or pancreatic cancer cells, and the cells were immediately exposed to TTFields (e.g., 100-250 kHz and 1-20 V/cm v/cm) for about 24, […], or 72 hours. The predetermined concentration was a cell line specific concentration for optimal target cell killing. Then, the cells were irradiated (at a dose of 2Gy) for less than a minute (e.g., 3.25 Gy/min) and immediately plated for survival.
# (§2) FIGS. 4 and 5 depict example effects of TTFields, AZD6738, radiation, and a combination thereof on non-small cell lung cancer cells (NSCLC) and pancreatic cancer cell, respectively. In particular, FIGS. 4 and 5 show TTFields exposure synergistically increases the effects of ATR inhibitor AZD6738 on NSLCL cells (FIG. 4) survival and pancreatic cancer cell (FIG. 5) survival. TTFields were used together with ATR inhibitor AZD6738 and radiation (IR). A synergistic effect was observed when AZD6738 and IR were combined with TTFields using the highest single agent (HSA) approach. The following formulas were used for calculating CI: SF=Survival Fraction; CI (TTFields)+(2Gy)=(SF2Gy×SFTTFields)/SF2Gy+TTFields; CI(TTFields)+(AZD)=(SFAZD×SFTTFields)/SFAZD+TTFields; CI (2Gy)+(AZD)=(SF2Gy×SFAZD)/SF2Gy+AZD; and CI (TTFields)+(2Gy)+(AZD)=(SF2Gy×SFAZD×SFTTFields)/SFTTFields+2Gy+AZD.
# (§3) The following formulas are used for calculating the combination Index: SF=Survival Fraction; CI (TTFields)+(2Gy)=(SF2Gy×SFTTFields)/SF2Gy+TTFields; CI(TTFields)+(Irino)=(SFIrino×SFTTFields)/SFIrino+TTFields; CI (2Gy)+(Irino)=(S2Gy×SFIrino)SF2Gy+Irino; and CI (TTFields)+(2Gy)+(Irino)=(SF2Gy×SFIrino×SFTTFields)/SFTTFields+2Gy+Irino.
# H157 cells [2] = assay: Clonogenic cell survival assay, H157 cells; conditions: for CI TTFields + ETOP / CI Irino + 2Gy / CI TTFields + Irino / CI TTFields + Irino + 2Gy: CI>1 synergistic
# Experimental: as §1, §2, §3
# NSCLC = assay: Cell survival of NSCLC cells with CP/ETP with/without TTFields (FIG. 6); conditions: HSA approach
# Experimental: as §1
# FIG. 6 depicts example effects of TTFields, Cisplatin, Etoposide, and a combination thereof on NSCLC. […] CP and ETP were tested alone or in combination and with/without TTFields.
# H157 cells [3] = assay: Clonogenic cell survival assay, H157 cells; conditions: 48 h, CI>1 synergistic
# Panc-1 cells = assay: Clonogenic cell survival assay, Panc-1 cells; conditions: for CI Irino + 2Gy / CI TTFields + Irino / CI TTFields + Irino + 2Gy / CI 2Gy + Olap / CI TTFields + 2Gy + Olap / CI TTFields + Olap: CI>1 synergistic; for surviving fraction: agent as shown in figure
# Experimental: as §1, with “killing.” for “killing. Then, the cells were irradiated (at a dose of 2Gy) for less than a minute (e.g., 3.25 Gy/min) and immediately plated for survival.”
# (§4) Olaparib was given concomitant with TTFields. Radiation was given 24, 48 or 72 h after the initiation of TTFields and specific agents. […] Values greater than 1.0 are considered as synergistic, that is, greater than the sum of the individual responses. The following formulas were used for calculating CI: SF=Survival Fraction; CI (TTFields)+(2Gy)=(SF2Gy×SFTTFields)/SF2Gy+TTFields; CI(TTFields)+(Olap)=(SFOlap×SFTTFields)/SFOlap+TTFields; CI (2Gy)+(Olap)=(SF2Gy×SFOlap)/SF2Gy+Olap; and CI (TTFields)+(2Gy)+(Olap)=(SF2Gy×SFOlap×SFTTFields)/SFTTFields+2Gy+Olap. […] Based upon the Highest Single Agent […] approach. The calculation for the Combination Index can be found below.
# as §2, §3
# H1299 cells [4] = assay: Clonogenic cell survival assay, H1299 cells; conditions: 48 h, CI>1 synergistic
# 04.03 cells = assay: Clonogenic cell survival assay, 04.03 cells; conditions: for CI 2Gy + Olap / CI TTFields + 2Gy + Olap / CI TTFields + Olap: CI>1 synergistic
# Experimental: as §1, with “killing.” for “killing. Then, the cells were irradiated (at a dose of 2Gy) for less than a minute (e.g., 3.25 Gy/min) and immediately plated for survival.”
# as §4, §2
smiles,measurement,setting,value
"COc1cc([C@@H]2c3cc4c(cc3[C@@H](O[C@@H]3O[C@@H]5CO[C@@H](C)O[C@H]5[C@H](O)[C@H]3O)[C@H]3COC(=O)[C@H]23)OCO4)cc(OC)c1O [ETOP, Etoposide]",CI TTFields + ETOP,H1299 cells [1]; 24 h,1.387
same,CI TTFields + ETOP,H1299 cells [1]; 48 h,1.174
same,CI TTFields + ETOP,H1299 cells [1]; 72 h,1.140
same,CI TTFields + ETOP,H157 cells [2]; 24 h,0.842
same,CI TTFields + ETOP,H157 cells [2]; 72 h,1.021
same,cell killing capacity in combination with TTFields,NSCLC,synergistically enhanced
same,CI TTFields + ETOP,H157 cells [3],0.995
"CCc1c2c(nc3ccc(OC(=O)N4CCC(N5CCCCC5)CC4)cc13)-c1cc3c(c(=O)n1C2)COC(=O)[C@]3(O)CC [Irino, Irinotecan]","effect of combinations of TTFields, agent and/or IR on cell survival",Panc-1 cells,synergistic effects
same,CI Irino + 2Gy,Panc-1 cells; 24 h,1.022
same,CI TTFields + Irino,Panc-1 cells; 24 h,1.082
same,CI TTFields + Irino + 2Gy,Panc-1 cells; 24 h,2.360
same,CI Irino + 2Gy,Panc-1 cells; 48 h,1.009
same,CI TTFields + Irino,Panc-1 cells; 48 h,0.974
same,CI TTFields + Irino + 2Gy,Panc-1 cells; 48 h,2.335
same,CI Irino + 2Gy,Panc-1 cells; 72 h,1.132
same,CI TTFields + Irino,Panc-1 cells; 72 h,1.030
same,CI TTFields + Irino + 2Gy,Panc-1 cells; 72 h,4.454
same,surviving fraction,Panc-1 cells,significantly reduced
same,"effect of combinations of TTFields, agent and/or IR on cell survival",H1299 cells [1],synergistic effects
same,CI Irino + 2Gy,H1299 cells [1]; 24 h,1.244
same,CI TTFields + Irino,H1299 cells [1]; 24 h,1.388
same,CI TTFields + Irino + 2Gy,H1299 cells [1]; 24 h,2.365
same,CI Irino + 2Gy,H1299 cells [1]; 48 h,1.012
same,CI TTFields + Irino + 2Gy,H1299 cells [1]; 48 h,2.130
same,CI Irino + 2Gy,H1299 cells [1]; 72 h,1.027
same,CI TTFields + Irino,H1299 cells [1]; 72 h,2.081
same,CI TTFields + Irino + 2Gy,H1299 cells [1]; 72 h,2.051
same,surviving fraction,H1299 cells [1]; agent as shown in figure,significantly reduced
same,"effect of combinations of TTFields, agent and/or IR on cell survival",H157 cells [2],synergistic effects
same,CI Irino + 2Gy,H157 cells [2]; 24 h,1.064
same,CI TTFields + Irino,H157 cells [2]; 24 h,1.483
same,CI TTFields + Irino + 2Gy,H157 cells [2]; 24 h,1.763
same,CI Irino + 2Gy,H157 cells [2]; 48 h,1.244
same,CI TTFields + Irino,H157 cells [2]; 48 h,1.174
same,CI TTFields + Irino + 2Gy,H157 cells [2]; 48 h,1.463
same,CI Irino + 2Gy,H157 cells [2]; 72 h,1.275
same,CI TTFields + Irino,H157 cells [2]; 72 h,1.136
same,CI TTFields + Irino + 2Gy,H157 cells [2]; 72 h,2.501
same,surviving fraction,H157 cells [2]; agent as shown in figure,significantly reduced
same,CI TTFields + Irino,H1299 cells [4],1.821
"O=C(c1cc(Cc2n[nH]c(=O)c3ccccc23)ccc1F)N1CCN(C(=O)C2CC2)CC1 [Olap, Olaparib]","effect of combinations of TTFields, agent and/or IR on cell survival",Panc-1 cells,synergistic effects
same,CI 2Gy + Olap,Panc-1 cells; 24 h,0.890
same,CI TTFields + 2Gy + Olap,Panc-1 cells; 24 h,1.589
same,CI TTFields + Olap,Panc-1 cells; 24 h,1.035
same,CI 2Gy + Olap,Panc-1 cells; 48 h,0.975
same,CI TTFields + 2Gy + Olap,Panc-1 cells; 48 h,1.817
same,CI TTFields + Olap,Panc-1 cells; 48 h,1.209
same,CI 2Gy + Olap,Panc-1 cells; 72 h,1.030
same,CI TTFields + 2Gy + Olap,Panc-1 cells; 72 h,2.028
same,CI TTFields + Olap,Panc-1 cells; 72 h,1.215
same,surviving fraction,Panc-1 cells,significantly reduced
same,"effect of combinations of TTFields, agent and/or IR on cell survival",04.03 cells,synergistic effects
same,CI 2Gy + Olap,04.03 cells; 24 h,1.550
same,CI TTFields + 2Gy + Olap,04.03 cells; 24 h,2.863
same,CI TTFields + Olap,04.03 cells; 24 h,1.101
same,CI 2Gy + Olap,04.03 cells; 48 h,1.582
same,CI TTFields + 2Gy + Olap,04.03 cells; 48 h,2.066
same,CI TTFields + Olap,04.03 cells; 48 h,0.973
same,CI 2Gy + Olap,04.03 cells; 72 h,1.462
same,CI TTFields + 2Gy + Olap,04.03 cells; 72 h,3.818
same,CI TTFields + Olap,04.03 cells; 72 h,1.042
same,surviving fraction,04.03 cells; agent as shown in figure,significantly reduced
